Experimental data as given in ChEMBL document CHEMBL1130828, “Synthesis and biological activities of phenyl piperazine-based peptidomimetic growth hormone secretagogues” (Bioorg Med Chem Lett, 1998).

Species on record: Rattus norvegicus
Assay: Concentration required for GH-releasing activity in the rat pituitary cell assay was determined in vitro
Assay type: functional
Details: Pituitary gland cell

Compound	EC50 [nM]
CC(C)S(=O)(=O)Nc1ccccc1N1CCN(C(=O)[C@@H](CCCc2ccccc2)NC(=O)C(C)(C)N)CC1	2.8
Cc1ccccc1N1CCN(C(=O)[C@@H](CCCc2ccccc2)NC(=O)C(C)(C)N)CC1	100
CC(C)(N)C(=O)N[C@H](CCCc1ccccc1)C(=O)N1CCN(c2ccccc2NS(=O)(=O)C(F)(F)F)CC1	200
CC(C)c1ccccc1N1CCN(C(=O)[C@@H](Cc2c[nH]c3ccccc23)NC(=O)C(C)(C)N)CC1	210
Cc1ccccc1N1CCN(C(=O)[C@@H](Cc2c[nH]c3ccccc23)NC(=O)C(C)(C)N)CC1	150
CC(C)(N)C(=O)N[C@H](Cc1c[nH]c2ccccc12)C(=O)N1CCN(c2ccccc2Cl)CC1	760

Continued by falling EC50, values first:

EC50 [nM]	Compound
490	COc1ccccc1N1CCN(C(=O)[C@@H](Cc2c[nH]c3ccccc23)NC(=O)C(C)(C)N)CC1
6.3	CC(C)(N)C(=O)N[C@H](CCCc1ccccc1)C(=O)N1CCN(c2ccccc2NS(C)(=O)=O)CC1
4.5	COC(=O)CS(=O)(=O)Nc1ccccc1N1CCN(C(=O)[C@@H](CCCc2ccccc2)NC(=O)C(C)(C)N)CC1
2.3	CC(C)(N)C(=O)N[C@H](CCCc1ccccc1)C(=O)N1CCN(c2ccccc2NS(=O)(=O)CC(=O)O)CC1
